Test results taken from patent US11499981B2, “Methods of identifying modulators of SAMTOR-GATOR1 interaction and use of same to modulate mTORC1” (Whitehead Institute for Biomedical Research, priority 2017, dated 2022).
pKd, pKi: −log10 of the molar value.

How the values were obtained:
[1] = molecular target: T1, SAMTOR-GATOR1-KICSTOR interaction in HEK-293T cells (Homo sapiens, UniProt Q1RMZ1); assay: Co-immunoprecipitation of GATOR1 with HA-SAMTOR from methionine-starved and restimulated cells; format: cell-based; settings: HEK-293T starved of methionine 2 hours
T1 construct: expressed in transfected cells; host or cells: HEK-293T cells transiently transfected with HA-SAMTOR in pRK5 (25 ng)
T1 sequence (Q1RMZ1 1-405): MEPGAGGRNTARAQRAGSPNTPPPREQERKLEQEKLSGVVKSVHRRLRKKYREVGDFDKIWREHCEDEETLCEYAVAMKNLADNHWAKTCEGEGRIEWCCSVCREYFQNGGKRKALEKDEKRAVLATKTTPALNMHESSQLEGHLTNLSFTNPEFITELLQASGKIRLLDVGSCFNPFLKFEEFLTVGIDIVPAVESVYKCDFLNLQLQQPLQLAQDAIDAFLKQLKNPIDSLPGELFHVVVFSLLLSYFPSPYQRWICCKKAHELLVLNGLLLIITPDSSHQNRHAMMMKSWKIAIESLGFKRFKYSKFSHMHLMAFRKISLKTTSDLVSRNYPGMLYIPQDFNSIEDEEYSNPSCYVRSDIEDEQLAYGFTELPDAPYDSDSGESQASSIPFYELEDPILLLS
Procedure: Cell volumes were determined by Coulter counter and used to calculate whole cell concentrations. […] HA-immunoprecipitates and cell lysates were analyzed by immunoblotting for the levels of the indicated proteins. […] Cell lysates were analyzed by immunoblotting for the phosphorylation states and the levels of the indicated proteins. […] Wild-type or SAMTOR-deficient HEK-293T cells were starved for the indicated amino acid for 2 hours. Cell lysates were analyzed by immunoblotting for the phosphorylation states and the levels of the indicated proteins. […] SAMTOR-deficient or control HEK-293T cells were treated as indicated for 2 hours prior to processing for immunofluorescence detection of mTOR and the lysosomal marker LAMP2. […] FLAG-immunoprecipitates and cell lysates were analyzed by immunoblotting for the phosphorylation states and the levels of the indicated proteins. […] Cell lysates were analyzed by immunoblotting for the phosphorylation states and the levels of the indicated proteins. […] Cell lysates were analyzed by immunoblotting for the phosphorylation states and the levels of the indicated proteins.
For anti-FLAG immunoprecipitations, anti-FLAG M2 Affinity Gel (SIGMA A2220) was washed with lysis buffer three times then resuspended to a ratio of 50:50 affinity gel to lysis buffer. […] Denatured samples were resolved by 8%-12% SDS-PAGE, and analyzed by immunoblotting.

mTORC1 = mTORC1 signaling in methionine-starved cells (immunoblotting of mTORC1 substrate phosphorylation); format: cell-based, human; settings: for activation of mTORC1 after loss of MAT2A: MAT2A dox-off HEK-293T cells, 30 ng/mL doxycycline for 50 hours
Procedure: Cell volumes were determined by Coulter counter and used to calculate whole cell concentrations. […] HA-immunoprecipitates and cell lysates were analyzed by immunoblotting for the levels of the indicated proteins. […] Cell lysates were analyzed by immunoblotting for the phosphorylation states and the levels of the indicated proteins. […] Wild-type or SAMTOR-deficient HEK-293T cells were starved for the indicated amino acid for 2 hours. Cell lysates were analyzed by immunoblotting for the phosphorylation states and the levels of the indicated proteins. […] SAMTOR-deficient or control HEK-293T cells were treated as indicated for 2 hours prior to processing for immunofluorescence detection of mTOR and the lysosomal marker LAMP2. In all images, insets represent selected fields magnified 3.07× as well as their overlays. Scale bar represents 10 μm. […] SAMTOR-null cells were co-transfected with a cDNA for FLAG-S6K1 along with the indicated HA-tagged cDNAs and cells were treated as in (FIG. 4C) prior to preparing lysates and FLAG-immunoprecipitates. FLAG-immunoprecipitates and cell lysates were analyzed by immunoblotting for the phosphorylation states and the levels of the indicated proteins. […] S2R+ cells were transfected with dsRNAs targeting the indicated mRNAs and starved for 1 hour for the indicated amino acid. Cell lysates were analyzed by immunoblotting for the phosphorylation states and the levels of the indicated proteins. […] MAT2A dox-off HEK-293T cells were treated with 30 ng/mL doxycycline for 50 hours prior to starving them as in (FIG. 4C). Cell lysates were analyzed by immunoblotting for the phosphorylation states and the levels of the indicated proteins.
Cells were rinsed with cold PBS and lysed in lysis buffer (1% Triton, 10 mM β-glycerol phosphate, 10 mM pyrophosphate, 40 mM Hepes pH 7.4, 2.5 mM MgCl2 and 1 tablet of EDTA-free protease inhibitor [Roche] (per 25 ml buffer)). […] Cell lysate samples were prepared by addition of 5× sample buffer (0.242 M Tris, 10% SDS, 25% glycerol, 0.5 M DTT, and bromophenol blue), resolved by 8%-16% SDS-PAGE, and analyzed by immunoblotting.

[2] = molecular target: T2, SAMTOR-GATOR1-KICSTOR complex (Homo sapiens, UniProt Q1RMZ1); assay: In vitro GATOR1-SAMTOR dissociation assay (immunopurified complex, immunoblotting); format: biochemical; settings: for disruption of the interaction between SAMTOR and GATOR1 (FIG. 3D): 100 μM, added to FLAG-Depdc5 immunoprecipitates; for disruption of the interaction of SAMTOR with GATOR1-KICSTOR: added directly to the immunopurified complex kept at 4° C.
T2 construct: FLAG-immunoprecipitates were prepared from the endogenously FLAG-tagged Depdc5 HEK-293T cells; endogenous in cells; host or cells: HEK-293T cells with endogenously FLAG-tagged Depdc5; anti-FLAG immunoprecipitate on beads
T2 sequence (Q1RMZ1 1-405): T1 sequence (Q1RMZ1 1-405)
Procedure: HEK-293T cells stably expressing endogenous FLAG-tagged Depdc5 were lysed and subjected to anti-FLAG immunoprecipitations as described above. The GATOR1-SAMTOR complexes immobilized on the FLAG beads were washed twice in lysis buffer with 250 mM NaCl, and then incubated for 25 minutes in 0.3 ml of cytosolic buffer (0.1% Triton, 40 mM HEPES pH7.4, 10 mM NaCl, 150 mM KCl, 2.5 mM MgCl2) with the indicated concentrations of SAM or SAH in the cold. The amount of GATOR1, SAMTOR, GATOR2, and KICSTOR that remained bound was assayed by SDS-PAGE and immunoblotting as described previously.

human FLAG-SAMTOR = molecular target: T3, human FLAG-SAMTOR (Homo sapiens, UniProt Q1RMZ1); assay: Equilibrium [3H]SAM binding assay and competition binding assay with purified FLAG-SAMTOR
T3 construct: made in house; host or cells: HEK-293F suspension cells, transient transfection; anti-FLAG IP, FLAG-peptide elution, size-exclusion chromatography
T3 sequence (Q1RMZ1 1-405): T1 sequence (Q1RMZ1 1-405)
Procedure: For radiolabelled SAM binding assays using FLAG-tagged wild-type SAMTOR (FIG. 3B), suspension HEK-293F cells were seeded at 2.5 million cells/ml, and the pRK5-FLAG-SAMTOR cDNA was transfected using polyethylenimine. 72-96 hours after transfection, cells were rinsed one time in cold PBS and lysed in 1% Triton lysis buffer (1% Triton, 40 mM Hepes pH 7.4, 2.5 mM MgCl2 and 1 tablet of EDTA-free protease inhibitor [Roche] per 25 ml buffer). Following anti-FLAG immunoprecipitation, the beads were washed 4 times with lysis buffer containing 500 mM NaCl and the protein was eluted in FLAG Elution Buffer (40 mM Hepes pH 7.4, 150 mM NaCl, 2.5 mM MgCl2 and 0.5 mg/ml FLAG peptide) for 1 hour at 4° C. […] Each sample was mixed well and then 15 μl aliquots were separately quantified using a TriCarb scintillation counter (Perkin Elmer). This process was repeated in pairs for each sample, to ensure similar incubation and wash times for all samples analyzed across different experiments. The affinities for SAM and SAH of human FLAG-SAMTOR were determined by first normalizing the bound [^3H]-labeled SAM concentrations across three separate binding assays performed with varying amounts of cold SAM or SAH. […]

[3] = molecular target: T4, human FLAG-SAMTOR (SAMTOR, C7orf60; wild-type, FLAG-tagged, expressed in HEK-293F cells) (Homo sapiens, UniProt Q1RMZ1); assay: Radiolabelled SAM binding assay: competition of unlabeled SAH with [3H]SAM for purified FLAG-SAMTOR (FIG. 3B); settings: 5 μM [3H]SAM competed with unlabeled SAH; 5 μg purified wild-type FLAG-SAMTOR on anti-FLAG beads, 1 h on ice, pH 7.4; Ki=IC50/(1+([3H]SAM)/Kd)
T4 construct: made in house; host or cells: HEK-293F (suspension), transient transfection of pRK5-FLAG-SAMTOR; anti-FLAG purification and size-exclusion chromatography
T4 sequence (Q1RMZ1 1-405): T1 sequence (Q1RMZ1 1-405)
From the text: FIGS. 3A-3G depict S-adenosylmethionine binds SAMTOR to disrupt its interaction with GATOR1 and KICSTOR. FIG. 3A provides a schematic of the human SAMTOR protein indicating the Class I Rossmann fold methyltransferase domain. Shown is an alignment of partial sequences of this domain from SAMTOR in indicated species. Amino acid positions are colored from white to blue in order of increasing sequence similarity. Orange dots denote the G172 and D190 residues of human SAMTOR. […] FLAG-SAMTOR protein prepared from HEK-293F cells transiently expressing the FLAG-SAMTOR cDNA was further purified by size-exclusion chromatography. The protein was analyzed by SDS-PAGE followed by Coomassie blue staining. Binding assays were performed with purified FLAG-SAMTOR incubated with 5 μM [^3H]SAM and indicated concentrations of unlabeled SAM or SAH. Values for each point are mean±SD of three technical replicates from one representative experiment. The experiment was performed twice. […] FLAG-immunoprecipitates and cell lysates were analyzed by immunoblotting for the levels of the indicated proteins. […] The experiment was performed and analyzed as in (FIG. 3C). […] HA-immunoprecipitates and cell lysates were analyzed as (FIG. 3C). […] FLAG-immunoprecipitates and cell lysates were analyzed by immunoblotting for the phosphorylation states and levels of the indicated proteins. […]

Row | Compound | SAMTOR-GATOR1-KICSTOR interaction in cells after re-addition ([1]; restimulated 20 minutes with 100 μM methionine) | activation of mTORC1 after loss of MAT2A (mTORC1) | SAMTOR-GATOR1-KICSTOR interaction in cells after re-addition ([1]; restimulated 20 minutes with 1 mM SAM) | disruption of the interaction between SAMTOR and GATOR1 (FIG. 3D) [2] | disruption of the interaction of SAMTOR with GATOR1-KICSTOR [2] | mTORC1 signaling after addition to methionine-starved cells (mTORC1; methionine-starved HEK-293T cells (FIG. 4H)) | pKd (human FLAG-SAMTOR; 5 μM [3H]SAM with unlabeled SAM, read-out: dissociation constant of SAM for SAMTOR) | pKi [3] | binding to SAMTOR in competition binding assay (human FLAG-SAMTOR; 5 μM [3H]SAM with unlabeled competitor)
1 | CSCC[C@H](N)C(=O)O [methionine] | reduced the interaction to baseline levels | greatly attenuated |  |  |  |  |  |  | 
2 | C[S+](CC[C@H](N)C(=O)[O-])C[C@H]1O[C@@H](n2cnc3c(N)ncnc32)[C@H](O)[C@@H]1O (stereo partly drawn) [SAM, S-adenosylmethionine] |  | largely intact | reduced the interaction to baseline levels | disrupt the interaction | disrupted the interaction | reactivated mTORC1 signaling | ~5.15 |  | 
3 | Nc1ncnc2c1ncn2[C@@H]1O[C@H](CSCC[C@H](N)C(=O)O)[C@@H](O)[C@H]1O [SAH, S-adenosylhomocysteine] |  |  |  | disrupt the interaction | disrupted the interaction |  |  | ~5.34 | can also bind
